Reference: ChEMBL document CHEMBL2074548, “Transport of digoxin by human P-glycoprotein expressed in a porcine kidney epithelial cell line (LLC-PK1)” (J Pharmacol Exp Ther, 1992)

Legend:
[1] = target: T1, ATP-dependent translocase ABCB1 (Homo sapiens, UniProt P08183); test: TP_TRANSPORTER: transepithelial transport (basal to apical) in MDR1-expressing LLC-PK1 cells; type: functional, cell-based; conditions: pig
[2] = target: T1, ATP-dependent translocase ABCB1; test: TP_TRANSPORTER: inhibition of Digoxin transepithelial transport (basal to apical)(Digoxin: 0.1uM, Vinblastine: 20 uM) in MDR1-expressing LLC-PK1 cells; type: functional, cell-based; conditions: pig, llc-pk1, 20 µM

T1 sequence (P08183 whole entry): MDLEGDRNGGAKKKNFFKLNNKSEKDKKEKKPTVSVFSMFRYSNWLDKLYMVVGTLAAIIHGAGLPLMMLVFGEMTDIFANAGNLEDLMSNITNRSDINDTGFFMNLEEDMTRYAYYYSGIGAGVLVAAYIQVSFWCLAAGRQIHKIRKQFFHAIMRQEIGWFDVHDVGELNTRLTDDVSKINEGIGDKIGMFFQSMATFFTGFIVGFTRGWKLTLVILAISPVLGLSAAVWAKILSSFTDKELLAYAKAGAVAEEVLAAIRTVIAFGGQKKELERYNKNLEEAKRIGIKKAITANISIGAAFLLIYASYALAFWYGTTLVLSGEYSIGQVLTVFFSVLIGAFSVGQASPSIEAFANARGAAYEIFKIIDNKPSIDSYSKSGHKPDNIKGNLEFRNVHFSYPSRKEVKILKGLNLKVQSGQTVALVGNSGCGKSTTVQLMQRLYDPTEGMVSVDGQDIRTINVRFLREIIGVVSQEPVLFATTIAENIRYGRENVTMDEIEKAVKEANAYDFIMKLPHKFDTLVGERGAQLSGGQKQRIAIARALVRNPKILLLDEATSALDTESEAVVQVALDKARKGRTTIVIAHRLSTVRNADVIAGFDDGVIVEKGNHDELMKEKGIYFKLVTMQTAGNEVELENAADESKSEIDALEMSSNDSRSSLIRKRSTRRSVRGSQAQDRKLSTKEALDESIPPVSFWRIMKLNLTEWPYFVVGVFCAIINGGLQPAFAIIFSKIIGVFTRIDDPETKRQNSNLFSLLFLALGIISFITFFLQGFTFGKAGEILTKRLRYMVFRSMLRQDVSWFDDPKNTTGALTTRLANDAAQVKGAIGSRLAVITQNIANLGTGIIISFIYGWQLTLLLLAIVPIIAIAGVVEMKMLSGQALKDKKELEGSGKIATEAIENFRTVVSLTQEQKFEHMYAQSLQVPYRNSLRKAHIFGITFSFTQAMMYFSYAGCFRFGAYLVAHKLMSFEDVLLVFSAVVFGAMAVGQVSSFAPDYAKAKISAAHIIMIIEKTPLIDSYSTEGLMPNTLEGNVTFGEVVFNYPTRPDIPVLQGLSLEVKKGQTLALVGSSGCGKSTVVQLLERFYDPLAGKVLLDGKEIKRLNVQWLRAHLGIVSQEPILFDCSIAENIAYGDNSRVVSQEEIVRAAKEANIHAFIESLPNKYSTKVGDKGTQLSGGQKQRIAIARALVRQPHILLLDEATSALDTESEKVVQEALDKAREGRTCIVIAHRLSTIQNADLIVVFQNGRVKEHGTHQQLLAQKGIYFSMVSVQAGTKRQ

Activity [1]	Activity [2]	SMILES
substrate [+]	–	C[C@H]1O[C@@H](O[C@H]2[C@@H](O)C[C@H](O[C@H]3[C@@H](O)C[C@H](O[C@H]4CC[C@@]5(C)[C@H](CC[C@@H]6[C@@H]5C[C@@H](O)[C@]5(C)[C@@H](C7=CC(=O)OC7)CC[C@]65O)C4)O[C@@H]3C)O[C@@H]2C)C[C@H](O)[C@@H]1O [DIGOXIN]
–	inhibitor [+]	CC[C@]1(O)C[C@@H]2CN(CCc3c([nH]c4ccccc34)[C@@](C(=O)OC)(c3cc4c(cc3OC)N(C)[C@H]3[C@@](O)(C(=O)OC)[C@H](OC(C)=O)[C@]5(CC)C=CCN6CC[C@]43[C@@H]65)C2)C1 [VINBLASTINE]
